Laboratory results as given in US8524691B2, “Phosphonated rifamycins and uses thereof for the prevention and treatment of bone and joint infections” (The Medicines Company, priority 2008, dated 2013).
Converted amounts (≈) assume the structure as drawn. Read-outs that look alike come from different tables or passages of the source.

Key:
S. aureus ATCC 13709 [1] = assay: microbe, parasite or virus in culture; format: cell-based; conditions: for Minimum inhibitory concentration, S. aureus ATCC 13709: CAMHB, 37° C., 18 h
Procedure, shortened: (§1)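 Two-fold serial dilutions in DMSO were tested in cation-adjusted Mueller Hinton broth, following NCCLS M26-A, at 5×10^5 c.f.u./mL with 1.25% DMSO final, in duplicate. Plates were incubated at 37 °C for 18 h. MIC was the lowest concentration inhibiting visible growth.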

[2] = format: in vitro ADME; conditions: for % Conversion (prodrug converted to parent drug after binding to bone): 24 h incubation, 37° C.
Description: Amounts of parent drug “regenerated” from the phosphonated prodrug were measured as follows. Washed bone powder-bound prodrugs from the above experiment were resuspended in 400 μL PBS+2% DMSO or in 400 μL 50% (v/v in PBS+2% DMSO) human or rat serum. The suspension was incubated overnight at 37° C., centrifuged at 13,000 rpm for 2 min and the supernatant was recovered. The amount of regenerated parent drug in the supernatant was determined by measurements using the microbiological assay that was previously described for the prodrugs themselves. The amount of prodrug was deduced from standard curves of known amounts of parent drug that were used as reference for each experiment. The amount of regenerated drug assessed by this bioassay was corroborated by MIC determination. The percentage of drug regenerated in PBS or serum after the overnight incubation (Table 2) was deduced from the difference between the amount of bound prodrug and the amount of regenerated drug (not shown).

[3] = system: Novobiocin resistant mutant strain of S. aureus ATCC 13709; assay: Prophylactic efficacy in rat model of S. aureus bone infection; format: in vivo; conditions: for Measured bacterial titer, test compound: 20 mg/kg parent drug equivalent, tibia 24 h postinfection; for Prophylactic activity in rat bone infection model (in words): 20 mg/kg, 1 day or 5 days prior to infection
Description: To determine the in vivo activity of bisphosphonated prodrugs of Rifamycin derived antibacterials in comparison to their non-bisphosphonated parents, compounds 18, 19, 48a, 59, 66, 89, 95, 102, 110, 142b and 164 and their parent drug rifabutin were used as prophylactic therapeutics in an animal model of infection. Specifically, a spontaneous Novobiocin resistant mutant strain of S. aureus ATCC 13709 (a clinical osteomyelitis isolate), was grown overnight at 37° C. in brain heart infusion broth (BHIB). After 16 h of growth, cells were subcultured into fresh BHIB and incubated for 4 to 5 h at 37° C. The cells were washed twice with phosphate-buffered saline (PBS) and resuspended in BHIB supplemented with 10% (vol./vol.) fetal bovine serum at a density of approximately 10^10 colony forming units (CFU)/ml (based upon turbidimetry). The suspension was aliquoted and a portion was used to check the CFU count. The culture was stored frozen (−80° C.) and was used without subculture. For use as an inoculum the culture was thawed, diluted in PBS and kept in an ice bath until it was used.
Animals were infected as described by O'Reilly et al. (Antimicrobial Agents and Chemotherapy (1992), 36(12): 2693-97) to generate the bone infection. Female CD rats (age, 57 to 70 days; n=5/group; Charles River, St-Constant, Canada) were anaesthetized by isofluorane before and during the surgery. Following complete induction of anesthesia, the rat was placed ventral side up and hair was shaved from the surgical site. The skin over the leg was cleaned and disinfected (proviodine-ethanol 70%). A longitudinal incision below the knee joint was made in the sagital plane. The incision was made over the bone below the “knee joint” (tibia head or condyle) but not completely extending to the ankle. A high speed drill fitted with a 2 mm bulb bit was used to drill a hole into the medullar cavity of the tibia. Rats were injected intra-tibially with 0.05 ml 5% sodium morrhuate (sclerosing agent) and then with 0.05 ml of S. aureus suspension (ca. 2×10^7 CFU/rat). The hole was sealed by applying a small amount of dry dental cement which immediately absorbs fluids and adheres to the site. The wound was closed using 3 metal skin clips. Moxifloxacin (as a positive control) was injected once at 10 mg/kg intravenously 1 h postinfection in saline, while the Rifabutin derived prodrugs (prepared in 0.9% saline) were injected at the dose indicated in Table 3 as a single intravenous bolus at different time points prior to the infection.
Infected rats were sacrificed by CO2 asphyxiation 24 h postinfection to monitor the bacterial CFU count. Infected tibiae were removed, dissected free of soft tissue, and weighed. The bones were ground, 50 mg of charcoal were added and the powder was resuspended in 5 ml 0.9% NaCl, serially diluted and processed for quantitative cultures. Treatment efficacy was measured in terms of Log viable bacteria (Log CFU per gram of bone). […] The limit of detection is 2 Log CFU. Statistical comparisons of viable bacterial counts for the different treated and untreated groups were performed with the Dunnett's multiple-comparison test. Differences were considered significant when the P value was <0.05 when comparing treated infected animals to the untreated infected ones. The doses used, the amount of time separating the treatment from the time of infection and the treatment outcomes are shown in Table 3.

S. aureus ATCC 29213 = assay: Antibacterial susceptibility (MIC), NCCLS broth microdilution; format: cell-based; conditions: for Minimum inhibitory concentration, S. aureus ATCC 29213: CAMHB, 37° C., 18 h
Procedure, shortened: as §1

[4] = system: S. aureus ATCC 13709^A, Novobiocin and Rifampicin resistant variant; assay: as above; format: cell-based
Procedure, shortened: as §1

S. aureus ATCC 13709 [5] = assay: microbe, parasite or virus in culture; format: cell-based; conditions: for Serum dependence of antibacterial activity (in words): MIC with versus without serum; for MIC: Staphylococcus aureus, ATCC13709, 18 h
[6] = single intravenous bolus 1 day prior to infection
[7] = single intravenous bolus 5 days prior to infection

Structure (SMILES)	Minimum inhibitory concentration, S. aureus ATCC 13709 (S. aureus ATCC 13709 [1]) [µg/mL]	Release of parent rifabutin from bone powder-bound prodrug (in words) [2]	% Conversion (prodrug converted to parent drug after binding to bone) ([2]; 50% Heat Inactivated Rat Serum) [%]	% Conversion (prodrug converted to parent drug after binding to bone) ([2]; 50% Rat Serum) [%]	% Conversion (prodrug converted to parent drug after binding to bone) ([2]; PBS) [%]	Measured bacterial titer, test compound [3, 6]	Measured bacterial titer, test compound [3, 7]	Prophylactic activity in rat bone infection model (in words) [3]	Minimum inhibitory concentration, S. aureus ATCC 29213 (S. aureus ATCC 29213) [µg/mL]	Minimum inhibitory concentration, S. aureus ATCC 13709^A [4] [µg/mL]	Minimum inhibitory concentration, ATCC 13709 + 50% Human Serum (S. aureus ATCC 13709 [5]) [µg/mL]	Minimum inhibitory concentration, ATCC 13709 + 50% Mouse Serum (S. aureus ATCC 13709 [5]) [µg/mL]	Minimum inhibitory concentration, ATCC 13709 + 50% Rat Serum (S. aureus ATCC 13709 [5]) [µg/mL]	Serum dependence of antibacterial activity (in words) (S. aureus ATCC 13709 [5])	further results
CCC(=O)OCOC(=O)N[C@@H](CCCCNC(=O)CCC(P(=O)(O)O)P(=O)(O)O)C(=O)N(C)CC(=O)O[C@@H]1[C@@H](C)[C@@H](O)[C@@H](C)[C@H](OC(C)=O)[C@H](C)[C@@H](OC)/C=C/O[C@@]2(C)Oc3c(C)c(O)c4c(c3C2=O)C2=NC3(CCN(CC(C)C)CC3)NC2=C(NC(=O)/C(C)=C\C=C\[C@@H]1C)C4=O.N.N [Compound 95]	4	regeneration is clearly accelerated by the presence of serum	0.13	0.14 ± 0.06	0.02	2.3 ± 0.57 Log CFU/g of bone	3.75 ± 0.54 Log CFU/g of bone	active at 1 day and display activity similar to rifabutin at 5 days	4	>128	16	0.0625	0.0156	significant increase in antibacterial activity in serum	
CCN(CC)CC.CCN(CC)CC.CO[C@H]1/C=C/O[C@@]2(C)Oc3c(C)c(O)c4c(c3C2=O)C2=NC3(CCN(CC(C)C)CC3)N(C(=O)OCc3ccc(OC(=O)CCCC(P(=O)(O)O)P(=O)(O)O)cc3)C2=C(NC(=O)/C(C)=C\C=C\[C@H](C)[C@H](O)[C@@H](C)[C@@H](O)[C@@H](C)[C@H](OC(C)=O)[C@@H]1C)C4=O [Compound 18]	0.125	release significant amounts of the parent rifabutin once bound to bone powder, regardless of the presence of serum	0.55 ± 0.20	0.95 ± 0.40	0.66 ± 0.03	2.08 ± 0.02 Log CFU/g of bone	2.91 ± 1.33 Log CFU/g of bone	active at 1 day and display activity similar to rifabutin at 5 days	0.125	>128	0.125	0.125	0.0156		Antibacterial activity (in words, from Table 1) (S. aureus ATCC 13709 [1]; S. aureus MIC): very low MICs whether in the absence or in the presence of serum
CCC(=O)OCOC(=O)N[C@@H](Cc1ccc(OCCCC(P(=O)(O)O)P(=O)(O)O)cc1)C(=O)N(C)CC(=O)O[C@@H]1[C@@H](C)[C@@H](O)[C@@H](C)[C@H](OC(C)=O)[C@H](C)[C@@H](OC)/C=C/O[C@@]2(C)Oc3c(C)c(O)c4c(c3C2=O)C2=NC3(CCN(CC(C)C)CC3)NC2=C(NC(=O)/C(C)=C\C=C\[C@@H]1C)C4=O.N.N [Compound 89]	4	regeneration is clearly accelerated by the presence of serum	0.16 ± 0.04	0.18	0.02	2.05 ± 0.07 Log CFU/g of bone	3.45 ± 1.36 Log CFU/g of bone	active at 1 day and display activity similar to rifabutin at 5 days	4	>128	16	0.0625	0.0156	significant increase in antibacterial activity in serum	
CCC(=O)OCOC(=O)N[C@@H](CCC(=O)NC(P(=O)(O)O)P(=O)(O)O)C(=O)N(C)CC(=O)O[C@@H]1[C@@H](C)[C@@H](O)[C@@H](C)[C@H](OC(C)=O)[C@H](C)[C@@H](OC)/C=C/O[C@@]2(C)Oc3c(C)c(O)c4c(c3C2=O)C2=NC3(CCN(CC(C)C)CC3)NC2=C(NC(=O)/C(C)=C\C=C\[C@@H]1C)C4=O [Compound 102]						2.89 ± 1.13 Log CFU/g of bone	5.38 ± 0.83 Log CFU/g of bone	active at 1 day and display activity similar to rifabutin at 5 days						significant increase in antibacterial activity in serum	MIC (S. aureus ATCC 13709 [1]; Staphylococcus aureus, ATCC13709, 18 h, read-out: Minimum inhibitory concentration, S. aureus ATCC 13709): 4 µg/mL (≈ 2.96 µM); Release of parent rifabutin from bone powder-bound prodrug (in words) ([2]; PBS versus serum): regeneration is clearly accelerated by the presence of serum; MIC (S. aureus ATCC 29213; Staphylococcus aureus, ATCC29213, 18 h, read-out: Minimum inhibitory concentration, S. aureus ATCC 29213): 2 µg/mL (≈ 1.48 µM); MIC ([4]; Staphylococcus aureus, ATCC13709, read-out: Minimum inhibitory concentration, S. aureus ATCC 13709^A): > 128 µg/mL; MIC (S. aureus ATCC 13709 [5]; read-out: Minimum inhibitory concentration, ATCC 13709 + 50% Human Serum): 16 µg/mL; MIC (S. aureus ATCC 13709 [5]; read-out: Minimum inhibitory concentration, ATCC 13709 + 50% Mouse Serum): 0.0625 µg/mL; MIC (S. aureus ATCC 13709 [5]; read-out: Minimum inhibitory concentration, ATCC 13709 + 50% Rat Serum): 0.0156 µg/mL
